# From patent US8350062B2, “Synthesis and anticancer activity of new actin-targeting small-molecule agents” (priority 2009, dated 2013)
# How the values were obtained:
# Assay in all cases: NCI 60 cell line single dose screen
# Format in all cases: cell-based, human
# 786-0 = 786-0 (Renal Cancer), 10 micromolar, 48 h
# Excerpt: (§1) Analog 10 was screened utilizing 60 different human tumor cell lines, representing leukemia, melanoma and cancers of the lung, colon, brain, ovary, breast, prostate, and kidney in order to show selective growth inhibition or cell killing of particular tumor cell lines. This screen is unique in that the complexity of a 60 cell line dose response produced by a given compound results in a biological response pattern which can be utilized in pattern recognition algorithms (COMPARE program. See: http://dtp.nci.nih.gov/docs/compare/compare.html). Using these algorithms, it is possible to assign a putative mechanism of action to a test compound, or to determine that the response pattern is unique and not similar to that of any of the standard prototype compounds included in the NCI database. In addition, following characterization of various cellular molecular targets in the 60 cell lines, it may be possible to select compounds most likely to interact with a specific molecular target.
# (§2) The screening is a two-stage process, beginning with the evaluation of the compound against the 60 cell lines at a single dose of 10 uM.
# (§3) The human tumor cell lines of the cancer screening panel are grown in RPMI 1640 medium containing 5% fetal bovine serum and 2 mM L-glutamine. For a typical screening experiment, cells are inoculated into 96 well microtiter plates in 100 μL at plating densities ranging from 5,000 to 40,000 cells/well depending on the doubling time of individual cell lines. After cell inoculation, the microtiter plates are incubated at 37° C., 5% CO2, 95% air and 100% relative humidity for 24 h prior to addition of experimental drug.
# (§4) After 24 h, two plates of each cell line are fixed in situ with TCA, to represent a measurement of the cell population for each cell line at the time of drug addition (Tz). Experimental drugs are solubilized in dimethyl sulfoxide at 400-fold the desired final maximum test concentration and stored frozen prior to use. At the time of drug addition, an aliquot of frozen concentrate is thawed and diluted to twice the desired final maximum test concentration with complete medium containing 50 μg/ml gentamicin.
# (§5) Following drug addition, the plates are incubated for an additional 48 h at 37° C., 5% CO2, 95% air, and 100% relative humidity. For adherent cells, the assay is terminated by the addition of cold TCA. Cells are fixed in situ by the gentle addition of […] of cold 50% (w/v) TCA (final concentration, 10% TCA) and incubated for 60 minutes at 4° C. The supernatant is discarded, and the plates are washed five times with tap water and air dried. Sulforhodamine B (SRB) solution (100 μl) at 0.4% (w/v) in 1% acetic acid is added to each well, and plates are incubated for 10 minutes at room temperature. After staining, unbound dye is removed by washing five times with 1% acetic acid and the plates are air dried. Bound stain is subsequently solubilized with 10 mM trizma base, and the absorbance is read on an automated plate reader at a wavelength of 515 nm. For suspension cells, the methodology is the same except that the assay is terminated by fixing settled cells at the bottom of the wells by gently adding 50 μl of 80% TCA (final concentration, 16% TCA). Using the absorbance measurements [time zero, (Tz), control growth, (C), and test growth in the presence of drug (Ti)], the percentage growth is calculated.
# A549/ATCC = A549/ATCC (Non-Small Cell Lung Cancer), 10 micromolar, 48 h
# Excerpt: as §1, §2, §3, §4, §5
# BT-549 = BT-549 (Breast Cancer), 10 micromolar, 48 h
# Excerpt: as §1, §2, §3, §4, §5
# CCRF-CEM = CCRF-CEM (Leukemia), 10 micromolar, 48 h
# Excerpt: as §1, §2, §3, §4, §5
# EKVX = EKVX (Non-Small Cell Lung Cancer), 10 micromolar, 48 h
# Excerpt: as §1, §2, §3, §4, §5
# HCT-15 = HCT-15 (Colon Cancer), 10 micromolar, 48 h
# Excerpt: as §1, §2, §3, §4, §5
# HS 578T = HS 578T (Breast Cancer), 10 micromolar, 48 h
# Excerpt: as §1, §2, §3, §4, §5
# KM12 = KM12 (Colon Cancer), 10 micromolar, 48 h
# Excerpt: as §1, §2, §3, §4, §5
# MCF7 = MCF7 (Breast Cancer), 10 micromolar, 48 h
# Excerpt: as §1, §2, §3, §4, §5
# MOLT-4 = MOLT-4 (Leukemia), 10 micromolar, 48 h
# Excerpt: as §1, §2, §3, §4, §5
# NCI-H226 = NCI-H226 (Non-Small Cell Lung Cancer), 10 micromolar, 48 h
# Excerpt: as §1, §2, §3, §4, §5
# NCI-H23 = NCI-H23 (Non-Small Cell Lung Cancer), 10 micromolar, 48 h
# Excerpt: as §1, §2, §3, §4, §5
# NCI-H460 = NCI-H460 (Non-Small Cell Lung Cancer), 10 micromolar, 48 h
# Excerpt: as §1, §2, §3, §4, §5
# OVCAR-3 = OVCAR-3 (Ovarian Cancer), 10 micromolar, 48 h
# Excerpt: as §1, §2, §3, §4, §5
# OVCAR-8 = OVCAR-8 (Ovarian Cancer), 10 micromolar, 48 h
# Excerpt: as §1, §2, §3, §4, §5
# SF-268 = SF-268 (CNS Cancer), 10 micromolar, 48 h
# Excerpt: as §1, §2, §3, §4, §5
# SK-MEL-2 = SK-MEL-2 (Melanoma), 10 micromolar, 48 h
# Excerpt: as §1, §2, §3, §4, §5
# SN12C = SN12C (Renal Cancer), 10 micromolar, 48 h
# Excerpt: as §1, §2, §3, §4, §5
# SNB-19 = SNB-19 (CNS Cancer), 10 micromolar, 48 h
# Excerpt: as §1, §2, §3, §4, §5
# SNB-75 = SNB-75 (CNS Cancer), 10 micromolar, 48 h
# Excerpt: as §1, §2, §3, §4, §5
# TK-10 = TK-10 (Renal Cancer), 10 micromolar, 48 h
# Excerpt: as §1, §2, §3, §4, §5
# UACC-257 = UACC-257 (Melanoma), 10 micromolar, 48 h
# Excerpt: as §1, §2, §3, §4, §5
smiles,measurement,setting,value
COCCC(=O)NC[C@H](O)[C@H](C)C(=O)NCCC[C@H]1O[C@@]2(CCC[C@@H](CC[C@H](C)/C=C(\C)[C@H](C)O)O2)CCC1C (stereo partly shown) [Analog 10],Growth Percent,786-0,50.94%
same,Growth Percent,A549/ATCC,44.50%
same,Growth Percent,BT-549,29.35%
same,Growth Percent,CCRF-CEM,24.00%
same,Growth Percent,EKVX,29.10%
same,Growth Percent,HCT-15,58.89%
same,Growth Percent,HS 578T,46.51%
same,Growth Percent,KM12,73.09%
same,Growth Percent,MCF7,62.27%
same,Growth Percent,MOLT-4,57.48%
same,Growth Percent,NCI-H226,58.32%
same,Growth Percent,NCI-H23,56.78%
same,Growth Percent,NCI-H460,48.25%
same,Growth Percent,OVCAR-3,83.59%
same,Growth Percent,OVCAR-8,90.22%
same,Growth Percent,SF-268,37.08%
same,Growth Percent,SK-MEL-2,53.99%
same,Growth Percent,SN12C,57.59%
same,Growth Percent,SNB-19,75.95%
same,Growth Percent,SNB-75,6.67%
same,Growth Percent,TK-10,30.01%
same,Growth Percent,UACC-257,72.55%
